Data as given in US9834525B2, “Inhibitors of paxillin function and related compositions and methods” (UNIVERSITY OF TENNESSEE RESEARCH FOUNDATION, priority 2015, dated 2017).

How the values were obtained:
92.1 cell line = assay: CFSE cellular proliferation, 92.1; format: cell-based, human; details: 96 hrs culture, 1 μM for the last 24 hrs
Procedure: (§1) Harvested cells were resuspended at a concentration of 1.0×10^6 cells/mL in warm PBS/1% FBS. Cells were labeled with […] (Invitrogen) for 5 minutes at 37° C. then quenched on cold growth media (final volume 20 mL) for 10 minutes, twice. Cultured unlabeled cells were used as controls.
(§2) To test the hypothesis that inhibition of paxillin will reduce cellular proliferation UM cell lines were labeled with carboxyfluorescein succunimidyl ester (CFSE), a cell tracking dye, and cultured for 96 hrs. A group of cells received treatment with compound (II-4) for the last 24 hours. Maximum CFSE fluorescence was controlled using labeled cells prior culture −0 hr. Negative control was established using unlabeled cells cultured in parallel. Histograms in FIG. 15D show 96 hrs cultured cells divided with a 1-log shift or reduction in CFSE intensity. […] Cell proliferation was not affected in the 92.1 cell line. […]
(§3) FIG. 15: The paxillin inhibitor Compound (II-4) selectively affects cellular proliferation of primary UM cells that become metastatic. […] Unlabeled cells were used to control fluorescence. […] B. Quantitation of experiment +/−SD including primary UM that becomes metastatic (Mel 270), metastatic (OMM 2.1) and primary (92.1) UM cells. *P=0.0007 and **P=0.0005. […] Quantitation of VLA-4 protein levels +/−SD from n=3. […]

Mel 270 primary-UM cells = assay: CFSE cellular proliferation, Mel 270; format: cell-based, human; details: 96 hrs culture, 1 μM for the last 24 hrs
Procedure: as §1, §2, §3

[1] = Microsomal stability, pooled human liver microsomes; format: in vitro ADME
Procedure: (§4) Microsomal stability of compound (II-4) (1 μM) was assessed in pooled liver microsomes (human, mouse, and rat) (FIG. 7). Briefly, compound (II-4) was incubated in duplicate with microsomes at 37° C. Reactions contained microsomal protein in 100 mM potassium phosphate, 2 mM NADPH, 3 mM MgCl2, pH 7.4. NADPH was omitted to detect NADPH-free degradation. At 60 minutes, the reaction was stopped by adding ice-cold methanol containing internal standard. Samples were centrifuged to remove precipitated protein, and the supernatants were analyzed by LC/MS/MS to quantitate the remaining parent.
as §4, with “23).” for “7).”, “min,” for “minutes,”, “(+” for “containing”, “standard).” for “standard.”

[2] = Microsomal stability, pooled rat liver microsomes; format: in vitro ADME; details: 1 μM, 37° C., 60 min
Procedure: as §4
as §4, with “23).” for “7).”, “min,” for “minutes,”, “(+” for “containing”, “standard).” for “standard.”

[3] = molecular target: T1, melatonin-1 receptor (MT-1) (Homo sapiens, UniProt P48039); assay: Off-target counter screening, ExpresS Profile; format: binding; details: 10 μM
T1 construct: purchased Eurofins, Cerep Panlabs ExpresS Profile
T1 sequence (P48039 whole entry): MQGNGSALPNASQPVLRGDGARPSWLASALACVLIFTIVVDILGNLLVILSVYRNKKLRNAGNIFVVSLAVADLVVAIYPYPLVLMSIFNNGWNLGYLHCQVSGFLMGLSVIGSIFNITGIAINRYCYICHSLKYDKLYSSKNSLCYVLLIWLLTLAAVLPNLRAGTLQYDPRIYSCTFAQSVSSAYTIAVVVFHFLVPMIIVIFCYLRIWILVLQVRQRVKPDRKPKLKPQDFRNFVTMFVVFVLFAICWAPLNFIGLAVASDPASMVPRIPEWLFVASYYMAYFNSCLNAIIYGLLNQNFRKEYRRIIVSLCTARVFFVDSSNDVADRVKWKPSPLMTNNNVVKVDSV
Procedure: (§5) Counter-screen assays to determine “off-target” effects are conducted at an early stage to mitigate toxicological risk of new chemical entities. Compound (II-4) (10 μM) counter screening was conducted against a wide variety of target receptors, enzymes, and ion channels using a serum-free cell-based assay, ExpresS Profile (Eurofins, Cerep Panlabs). Inhibition >50% is considered a “positive” interaction.

[4] = molecular target: T2, serotonin receptor 5-HT2B (Homo sapiens, UniProt P41595); assay: Off-target counter screening, ExpresS Profile; format: binding; details: 10 μM
T2 construct: purchased Eurofins, Cerep Panlabs ExpresS Profile
T2 sequence (P41595 whole entry): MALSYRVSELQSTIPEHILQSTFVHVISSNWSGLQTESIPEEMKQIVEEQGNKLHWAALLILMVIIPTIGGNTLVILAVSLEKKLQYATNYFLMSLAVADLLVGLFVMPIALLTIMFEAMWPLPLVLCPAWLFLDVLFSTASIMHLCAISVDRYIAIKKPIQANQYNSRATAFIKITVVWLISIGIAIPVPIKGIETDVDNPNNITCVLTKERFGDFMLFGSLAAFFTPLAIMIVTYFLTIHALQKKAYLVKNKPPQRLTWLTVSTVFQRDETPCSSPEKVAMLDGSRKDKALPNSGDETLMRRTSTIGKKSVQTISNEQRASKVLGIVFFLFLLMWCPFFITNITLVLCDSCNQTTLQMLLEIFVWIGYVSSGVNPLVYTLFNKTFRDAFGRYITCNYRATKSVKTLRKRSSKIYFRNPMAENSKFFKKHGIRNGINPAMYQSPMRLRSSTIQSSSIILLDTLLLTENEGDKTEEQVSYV
Procedure: as §5

[5] = tested on: paxillin (pY118) in OMM 2.5 cells; assay: Western blot of pY118 and total paxillin in HGF-treated metastatic UM cells; format: cell-based, human; details: HGF-treated OMM 2.5 cells, 4 hrs
Procedure: REC, Mel 270, OMM 2.5 under Hepatocyte Growth Factor (HGF) or Vascular Endothelial Growth Factor (VEGF) stimulation conditions: Cell lysates were collected in RIPA lysis buffer (50 mM Tris-HCl, pH 7.4, 150 mM NaCl, 2 mM EDTA, 1% Nonidet P-40, 0.1% SDS) with protease 1× inhibitor cocktail (Roche; Indianapolis, Ind.). Lysates were kept on ice and centrifuged at 10,000×g×10 minutes and total protein was measured using the BCA assay (Pierce, Rockford, Ill.). Protein samples were mixed with 4×LDS loading buffer with 2.5% 2-mercaptoethanol (Sigma-Aldrich), heated to 70° C. for 10 minutes, and loaded on NuPAGE 4-12% Bis-Tris gel (Invitrogen, Carlsbad, Calif.). […] Dual-channel infrared scan and quantitation of immunoblots were conducted using the ODYSSEY Sa infrared imaging system with Image Studio (Ver. 3.1.4) (LI-COR).
Immune studies of the α4β1 integrins (VCAM-1 and VLA-4) show high affinity α4 integrins may initiate signaling cascades through paxillin that regulate leukocytes migration to inflammation sites. […] The levels of total paxillin and pY118 were measured after activation of metastatic-UM (OMM 2.5) cells with Hepatocyte Growth Factor (HGF) to address in vitro if disruption of α4-downstream signaling through paxillin can affect α4-downstream signaling. […]

COc1cc(C2OC(=O)Nc3c2ccc2ccccc32)cc(OC)c1OC (centres unmarked) [compound II-4]
cell proliferation (CFSE) (92.1 cell line): not affected | cell proliferation (CFSE) (Mel 270 primary-UM cells): caused a reduction in cell proliferation | susceptibility to P-450 interaction in human microsomes compared to rodent ([1]; human vs rodent microsomes): less susceptible | microsomal stability (metabolism by cytochrome P-450 enzymes) ([1]; human, 1 μM, 37° C., 60 min): rapidly metabolized | microsomal stability (metabolism by cytochrome P-450 enzymes) [2]: rapidly metabolized | off-target interaction, MT-1 (inhibition >50% considered positive) [3]: possible binding targets | off-target interaction, 5-HT2B (inhibition >50% considered positive) [4]: possible binding targets | ratio of pY118 paxillin to total paxillin (pPax:Pax) [5]: dramatically decreased
